Legend:
Format in all cases: cell-based
SGLT5 [1] = biological target: T1, SGLT5 (Homo sapiens, UniProt A0PJK1); assay: Time dependent specific uptake of [14C]-monosaccharides by T-Rex 293-hSGLT5 cells (FIG. 3); details: 1 mM monosaccharide, 5-60 min, tetracycline induced T-Rex 293-hSGLT5 cells
T1 construct: expressed in transfected cells; host or cells: T-Rex 293 cells (Invitrogen), stably transfected with pT-Rex-Dest30-hSGLT5; expression induced with tetracycline; deposited clone DSM ACC3096
T1 sequence (A0PJK1 1-596): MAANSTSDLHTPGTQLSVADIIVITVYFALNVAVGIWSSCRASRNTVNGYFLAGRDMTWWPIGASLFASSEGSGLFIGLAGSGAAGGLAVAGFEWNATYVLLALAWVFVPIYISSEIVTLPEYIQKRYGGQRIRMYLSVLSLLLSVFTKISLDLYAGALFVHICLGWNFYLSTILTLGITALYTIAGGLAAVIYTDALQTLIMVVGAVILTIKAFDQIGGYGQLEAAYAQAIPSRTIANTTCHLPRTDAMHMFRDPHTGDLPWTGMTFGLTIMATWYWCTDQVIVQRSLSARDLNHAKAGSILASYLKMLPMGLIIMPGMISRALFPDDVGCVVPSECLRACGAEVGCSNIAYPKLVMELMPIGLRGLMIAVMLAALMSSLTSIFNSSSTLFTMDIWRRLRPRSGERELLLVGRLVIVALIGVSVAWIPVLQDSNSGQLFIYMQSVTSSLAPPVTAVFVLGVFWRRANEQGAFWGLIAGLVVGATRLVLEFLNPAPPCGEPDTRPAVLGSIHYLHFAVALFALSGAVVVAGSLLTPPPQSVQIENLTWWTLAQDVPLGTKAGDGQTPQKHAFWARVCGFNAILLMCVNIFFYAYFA
Method: [^14C]-saccharide uptake experiments: 30000 cells per well were seeded in white poly-D-lysine-coated 96-well plates and incubated over night. The expression of hSGLT5 was induced 24 h before the start of uptake experiments by the addition of 1 μg/ml tetracycline to the cells. For the assay, cells were washed twice with 250 μl pre-treatment buffer [140 mM cholinchloride in basal buffer (10 mM HEPES; 5.4 mM KCl; 2.8 mM CaCl2*2 H2O; 1.2 mM MgSO4*7 H2O; 0.1% BSA, pH 7.4) and incubated in 200 μl pre-treatment buffer for 25 min at 37° C. Pre-treatment buffer was removed and 200 μl uptake buffer was added to the cells (140 mM NaCl in basal buffer containing 1 mM cold monosaccharide [either glucose, fructose, mannose, galactose or alphamethyl glucopyranoside (AMG), respectively]+0,6 μCi [^14C]-labelled monosaccharide [either glucose, fructose, mannose, galactose or alpha-methyl glucopyranoside (AMG), respectively] (Hartmann Analytics, Mannheim, Germany) and 10 μM Cytochalasin B. After incubation for 5, 10, 30 and 60 minutes at 37° C., the cells were washed three times with 300 μl PBS (Cambrex, Verviers, Belgium) and then lysed in 0.1 N NaOH with intermittent shaking for 5 min. The lysate was mixed with 200 μl MikroScint 40 Scintillator, shaken for 15 min and counted for radioactivity in the TopCount NXT (Canberra Packard, Schwadorf, Austria). Specific sugar uptake was determined by subtracting non-specific uptake of each sugar (in the presence of choline chloride) from total uptake of the same sugar (in the presence of sodium chloride).
Furthermore, a protocol was established to measure the specific uptake of monosaccharides e.g. mannose, fructose, glucose, AMG and galactose by hSGLT5, It could be shown that the transporter takes up mannose and fructose with high affinity and hardly transports glucose, AMG and galactose (FIG. 3). […] Specific uptake was calculated by subtracting the respective monosaccharide uptake in the presence of choline chloride from the total uptake of the same monosaccharide in the presence of sodium chloride.

SGLT5 [2] = biological target: T1, SGLT5; assay: FLIPR membrane potential assay in HEK/293 cells constitutively expressing SGLT5 (Reference Example); details: constitutive expression; results later called unreliable and irreproducible
Method: FLIPR assay: Changes in membrane potential can be assayed using the FLIPR TETRA Assay (Molecular Devices). In this method cells are loaded with a fluorescent dye, which emits light of a different wavelength dependent on the membrane potential. This can be recorded in suitable cell culturing plates and monitored over time in the presence/absence of a test substance.
10.000 to 30.000 cells were seeded in a 384 well plate (black, lysine coated with transparent bottom, Becton Dickinson) and were incubated over night at 37° C. and 5% CO2. The next day they were washed twice with 50 μl assay buffer (140 mM NaCl; 1.26 mM CaCl2; 0.49 mM MgCl2*6 H2O; 0.41 mM MgSO4*7 H2O; 5.33 mM KCl; 0.44 mM KH2PO4−pH =7.4). […]
After starting the measurement ten sample points were assayed at intervals of 3 seconds. Thereafter […] of the dissolved test substances (e.g. monosaccharide and/or KCl) were added and 30 measurements were recorded in 3-second intervals, thereafter 16 measurements were recorded in 15-second intervals. […]
Cells showing strong expression by PCR were subcloned and propagated. […] According to the fluorescence signal induced by KCl a number of 30,000 cells/well was determined to provide the highest fluorescence signal. […] Thereafter cells were exposed to glucose, galactose, fructose, AMG or mannose in different concentrations and changes in fluorescence were recorded as described in Example 1. […]

SGLT5 [3] = biological target: T1, SGLT5; assay: Competitive assay to inhibit C14-labeled AMG uptake into transfected HEK cells (Reference Example); details: constitutive expression; called unreliable
Method: SGLT5 was cloned as described in Example 1. However, instead of using the inducible pT-Rex-Dest30 plasmid the sequence was inserted into the expression plasmid pcDNA3.1/V5-His for constitutive expression. Using lipofection HEK/293 cells (ATCC) were stably transfected. The expression plasmid contained resistance to geneticin as a selection marker. The cells were cultivated in DMEM with 10% FCS and […] geneticin for selecting transfected cells. Expression was tested by RT-PCR.
Furthermore, cells were tested for uptake of C^14-labeled galactose in an assay as described in Example 1. […] In addition, a competitive assay to inhibit C^14-labeled AMG uptake into the transfected HEK cells was performed.

SGLT5 [4] = biological target: T1, SGLT5; assay: Uptake of C14-labeled galactose in HEK/293 cells constitutively expressing SGLT5 (Reference Example); details: galactose 0.1 mM; constitutive expression; called unreliable
Method: [^14C]-saccharide uptake experiments: 30000 cells per well were seeded in white poly-D-lysine-coated 96-well plates and incubated over night. The expression of hSGLT5 was induced 24 h before the start of uptake experiments by the addition of 1 μg/ml tetracycline to the cells. For the assay, cells were washed twice with 250 μl pre-treatment buffer [140 mM cholinchloride in basal buffer (10 mM HEPES; 5.4 mM KCl; 2.8 mM CaCl2*2 H2O; 1.2 mM MgSO4*7 H2O; 0.1% BSA, pH 7.4) and incubated in 200 μl pre-treatment buffer for 25 min at 37° C. […] The lysate was mixed with 200 μl MikroScint 40 Scintillator, shaken for 15 min and counted for radioactivity in the TopCount NXT (Canberra Packard, Schwadorf, Austria). Specific sugar uptake was determined by subtracting non-specific uptake of each sugar (in the presence of choline chloride) from total uptake of the same sugar (in the presence of sodium chloride). […]

specific uptake / affinity for hSGLT5 (in words) (SGLT5 [1]): very low affinity
signal for depolarisation (FLIPR, in words) (SGLT5 [2]): strongest signal for depolarisation
inhibitory effect on C14-labeled AMG uptake (in words) (SGLT5 [3]): highest inhibitory effect
uptake signal relative to the negative control (absolute cpm) (SGLT5 [4]): approximately 3 fold
Structure (SMILES): O=C[C@H](O)[C@@H](O)[C@@H](O)[C@H](O)CO [galactose]
